Like-named read-outs stand apart in the source and are kept apart here.
Legend:
[1] = system: human colon cancer cell lines; assay: Cytotoxicity, NCI disease-oriented antitumor screening, colon cancer cell lines; format: cell-based; conditions: range of GI50's for the colon cancer cell lines, read-out: Cytotoxic activity (GI50), colon
Text: (§1) Compounds were subjected to the disease-oriented antitumor screening on 60 cancer cell lines in the National Cancer Institute of the U.S.A. (Grever, M. R. et al., Seminars in Oncology 1992, 19, 622~638). Results of cytotoxicity are summarized in Table 1, GI50 values represent the concentrations corresponding to 50% of growth inhibition.

[2] = system: human lung cancer cell lines; assay: Cytotoxicity, NCI disease-oriented antitumor screening, lung cancer cell lines; format: cell-based; conditions: range of GI50's for the lung cancer cell lines, read-out: Cytotoxic activity (GI50), lung
Text: as §1

[3] = system: human ovarian cancer cell lines; assay: Cytotoxicity, NCI disease-oriented antitumor screening, ovarian cancer cell lines; format: cell-based; conditions: range of GI50's for the ovarian cancer cell lines, read-out: Cytotoxic activity (GI50), ovarian
Text: as §1

[4] = system: human breast cancer cell lines; assay: Cytotoxicity, NCI disease-oriented antitumor screening, breast cancer cell lines; format: cell-based; conditions: range of GI50's for the breast cancer cell lines, read-out: Cytotoxic activity (GI50), breast
Text: as §1

[5] = system: human prostate cancer cell lines; assay: Cytotoxicity, NCI disease-oriented antitumor screening, prostate cancer cell lines; format: cell-based; conditions: range of GI50's for the prostate cancer cell lines, read-out: Cytotoxic activity (GI50), prostate
Text: as §1

[6] = system: human CNS tumor cell lines; assay: Cytotoxicity, NCI disease-oriented antitumor screening, CNS tumor cell lines; format: cell-based; conditions: for selective cytotoxicity on human CNS tumor cell lines: in words
Text: as §1

[7] = system: human renal cancer cell lines; assay: Cytotoxicity, NCI disease-oriented antitumor screening, renal cancer cell lines; format: cell-based; conditions: range of GI50's for the renal cancer cell lines, read-out: Cytotoxic activity (GI50), renal
Text: as §1

[8] = system: CNS SNB75 cell line; assay: Cytotoxicity, NCI disease-oriented antitumor screening, CNS SNB75 cell line; format: cell-based; conditions: Homo sapiens, SNB-75
Text: as §1

[9] = system: CNS U251 cell line; assay: Cytotoxicity, NCI disease-oriented antitumor screening, CNS U251 cell line; format: cell-based; conditions: Homo sapiens, U-251, read-out: Cytotoxic activity (GI50), CNS
Text: as §1

[10] = system: glycinamide ribonucleotide transformylase (GAR-Tfase); conditions: in words; Baldwin et al, 1991; cited from earlier work
[11] = CNS SNB75 cell line, read-out: Cytotoxic activity (GI50), CNS
[12] = SNB75 CNS cell line, read-out: GI50

For `Cc1nc(N)[nH]c(=O)c1N1CCN(c2ccc(S(N)(=O)=O)cc2)CC1` [Compound 12, 4-[4-(2-Amino-6-methyl-4-(3H)-oxopyrimidin-5-yl)-piperazin-1-yl]benzenesulfonamide], the GI50 [1] was greater than 100 µM, the GI50 [2] was greater than 100 µM and the GI50 [3] was greater than 100 µM. The GI50 [4] was greater than 100 µM, the GI50 [5] was greater than 100 µM and the “selective cytotoxicity on human CNS tumor cell lines” value [6] was “selective cytotoxicity”. For the same compound, the GI50 [7] was greater than 100 µM and the GI50 [8, 11] was 0.1 µM.

Work on `CCOC(=O)CCC(NC(=O)c1ccc(N2CCN(c3c(C)nc(N)[nH]c3=O)CC2)cc1)C(=O)OCC` (stereo not shown) [Compound 8, Diethyl N-[4-[4-(2-Amino-6-methyl-4(3H)-oxopyrimidin-5-yl)piperazin-1-yl]benzoyl]glutamic acid] yielded a GI50 [1] greater than 100 µM, a GI50 [2] greater than 100 µM and a GI50 [3] greater than 100 µM. The GI50 [4] was greater than 100 µM, the GI50 [5] was greater than 100 µM and the “selective cytotoxicity on human CNS tumor cell lines” value [6] was “selective cytotoxicity”. The GI50 [7] was greater than 100 µM, the GI50 [8, 11] was less than 0.01 µM and the GI50 [8, 12] was less than 0.01 µM.

Compound `Cc1nc(N)[nH]c(=O)c1N1CCN(c2ccc(C(=O)O)cc2)CC1` [Compound 7, 4-[4-(2-Amino-6-methyl-4(3H)-oxopyrimidin-5-yl)piperazin-1-yl]benzoic acid] has a GI50 [1] greater than 100 µM, a GI50 [2] greater than 100 µM and a GI50 [3] greater than 100 µM. The GI50 [4] was greater than 100 µM, the GI50 [5] was greater than 100 µM and the GI50 ([6]; Homo sapiens, CNS cell lines, no single line specified, read-out: Cytotoxic activity (GI50), CNS) was greater than 100 µM. It also gave a GI50 [7] of 1.39 µM.

In the case of `Cc1nc(N)[nH]c(=O)c1N1CCN(c2ccc([N+](=O)[O-])cc2)CC1` [Compound 10, 2-Amino-6-methyl-5-[4-(4-nitrophenyl)piperazin-1-yl]pyrimidin-4(3H)-one], the GI50 [1] is reported as greater than 100 µM, the GI50 [2] is reported as greater than 100 µM and the GI50 [3] is reported as greater than 100 µM. The GI50 [4] was greater than 100 µM, the GI50 [5] was greater than 100 µM and the “selective cytotoxicity on human CNS tumor cell lines” value [6] was “selective cytotoxicity”. For the same compound, the GI50 [7] was greater than 100 µM, the GI50 [8, 11] was less than 0.01 µM and the GI50 [8, 12] was less than 0.01 µM.

For `Cc1nc(N)[nH]c(=O)c1N1CCN(c2ccc(S(=O)(=O)N(Cc3ccccc3)Cc3ccccc3)cc2)CC1` [Compound 11], the GI50 [1] was 55 µM, the GI50 [2] was 4.8 to 79 µM and the GI50 [3] was 0.7 to 16 µM. The GI50 [4] was 2.1 to 37 µM, the GI50 [5] was 1.9 to 3.5 µM and the GI50 [9] was 3.68 µM. For the same compound, the GI50 [7] was 3.1 to 27 µM.

Work on `Cc1nc(N)[nH]c(=O)c1N1CCN(c2ccc(C(=O)NC(CCC(=O)O)C(=O)O)cc2)CC1` (stereo not shown) [Compound 9, N-[4-[4-(2-Amino-6-methyl-4-(3H)-oxopyrimidin-5-yl)piperazin-1-yl]benzoyl]glutamic acid] yielded a GI50 [1] greater than 100 µM, a GI50 [2] greater than 100 µM and a GI50 [3] greater than 100 µM. For the same compound, the GI50 [4] was greater than 100 µM, the GI50 [5] was greater than 100 µM and the “selective cytotoxicity on human CNS tumor cell lines” value [6] was “selective cytotoxicity”. For the same compound, the GI50 [7] was greater than 100 µM, the GI50 [8, 11] was less than 0.01 µM and the GI50 [8, 12] was less than 0.01 µM.

In the case of `Nc1nc2c(c(=O)[nH]1)CC(CCc1ccc(C(=O)N[C@@H](CCC(=O)O)C(=O)O)cc1)CN2` (stereo partly shown) [DDATHF, 5,10-dideaza-5,6,7,8-tetrahydrofolic acid], the “inhibition of GAR-Tfase” value [10] is given as “potent inhibitor”.

Compound `Cc1nc(N)[nH]c(=O)c1N1CCN(c2ccc(C#N)cc2)CC1` [Compound 6, 4-[4-(2-Amino-6-methyl-4(3H)-oxopyrimidin-5-yl)piperazin-1-yl]benzonitrile] has a GI50 [1] greater than 100 µM, a GI50 [2] greater than 100 µM and a GI50 [3] of 93 µM. For the same compound, the GI50 [4] was greater than 100 µM, the GI50 [5] was greater than 100 µM and the “selective cytotoxicity on human CNS tumor cell lines” value [6] was “selective cytotoxicity”. For the same compound, the GI50 [7] was greater than 100 µM and the GI50 [8, 11] was 0.04 µM.

From patent US5670508A, “2-amino-6-alkyl-5-(4-substituted-1-piperazinyl) pyrimidin-4-ones, the preparation and use thereof” (National Science Council, priority 1995, dated 1997)
